Measured values reported in US20220264878A1, “HERBICIDAL COMPOSITION CONTAINING R-TYPE PYRIDYLOXY CARBOXYLIC ACID DERIVATIVE AND USE THEREOF” (Qingdao Kingagroot Chemical Compound Co., Ltd., priority 2019, published 2022).
Like-named read-outs stand apart in the source and are kept apart here.

How the values were obtained:
Echinochloa caudate = test: Post-emergence foliage spray, pot culture, fresh weight inhibition (Tables 1-48, 51-98, 101-148; 24 days); format: in vivo
Experimental: (§1) The above weeds were cultivated by a pot culture method. […] Full and uniform weed seeds were selected, soaked in warm water at 25° C. for 6 hours, and germinated in a 28° C. biochemical incubator (darkness). The weed seeds that had just germinatedwere evenly placed on the surface of the soil and then covered with 0.5-1 cm soil according to the sizes of seeds.
(§2) The technical materials were all dissolved in acetone, and diluted with an aqueous solution containing 0.1% emulsifier Tween-80. The dilution is performed as required.
(§3) A ratio of the active ingredient A to the active ingredient B and amounts thereof in each group depends on the characteristics and toxicity of the two agents, as well as the main application purpose of a corresponding formulation. Based on the pre-tests in this study, the dosage of the active ingredient A and B applied alone and in combination were shown in the tables. Water containing the solvent and emulsifier same with the above groups but free of the agents was used as a blank control.
(§4) In the stage of weeds with 3˜4 leaves, the weeds were thinned out to maintain 15 weeds per pot and 45 weeds for each treatment, then continued to be cultured to 5˜6 leaves stage of grassy weeds, 6˜7 leaves stage of broadleaf weeds, and treated.
(§5) The well-cultured weeds were evenly placed on a platform with an area of 0.5 m^2, and a solution of agents was sprayed on the stems and leaves thereof by the 3WP-2000-type walking spray tower at a dosage of 450 kg/ha and at a spray pressure of 0.3 MPa. After all the solution was sprayed, the valve was closed. After 30 seconds, the door of the spray tower was opened, and the nutritional bowl was taken out. Then the valve was opened, and the spray tube was cleaned by spraying 50 ml of water.
(§6) A pot-culture method was employed. For the cultivation of weeds, please refer to the Section 1.1), and “Pesticide guidelines for laboratory bioactivity tests—herbicides”. As to a method for applying agents, please refer to the section 2.3.2), that is, a foliage treatment was employed. After the treatment, the weeds were routinely cultured in a greenhouse.
(§7) A method for investigating absolute number was employed, wherein whole seedlings of survival weeds were cut off with a blade along the soil surface, and the fresh weight of the weeds was weighed with an analytical balance. For dead weeds, the fresh weight thereof was zero.
(§8) Wherein, in the formula, X represented the fresh weight inhibition rate of the active ingredient A in a dosage of P, and Y represented the fresh weight inhibition rate of the active ingredient B in a dosage of Q.

Echinochloa oryzoides = test: as above; format: in vivo
Experimental: as §1, §2, §3, §4, §5, §6, §7, §8

[1] = Echinochloa, 576 h, read-out: Control effect (%) of B applied alone in corresponding dose
[2] = Echinochloa oryzoides, 576 h, read-out: Control effect (%) of B applied alone in corresponding dose

## CCCCOC(=O)[C@@H](C)Oc1ccc(Oc2ccc(C(F)(F)F)cn2)cc1 [fluazifop-P-butyl]
Echinochloa caudate; fluazifop-P-butyl 3.75 g a.i./ha
  Control effect (%) of B applied alone in corresponding dose: 4.2%
Echinochloa caudate; fluazifop-P-butyl 7.5 g a.i./ha
  Control effect (%) of B applied alone in corresponding dose: 13.9%
Echinochloa caudate; fluazifop-P-butyl 15 g a.i./ha
  Control effect (%) of B applied alone in corresponding dose: 38.4%
Echinochloa caudate; fluazifop-P-butyl 30 g a.i./ha
  Control effect (%) of B applied alone in corresponding dose: 74.1%
Echinochloa oryzoides; B 3.75 g a.i./ha
  Control effect (%) of B applied alone in corresponding dose: 5.5%
Echinochloa oryzoides; B 7.5 g a.i./ha
  Control effect (%) of B applied alone in corresponding dose: 14.2%
Echinochloa oryzoides; B 15 g a.i./ha
  Control effect (%) of B applied alone in corresponding dose: 32.9%
Echinochloa oryzoides; B 30 g a.i./ha
  Control effect (%) of B applied alone in corresponding dose: 71.5%

## COC(=O)[C@@H](C)Oc1ccc(Oc2ncc(C(F)(F)F)cc2Cl)cc1 [haloxyfop-P-methyl]
Echinochloa caudate; haloxyfop-P-methyl 3.75 g a.i./ha
  Control effect (%) of B applied alone in corresponding dose: 3.0%
Echinochloa caudate; haloxyfop-P-methyl 7.5 g a.i./ha
  Control effect (%) of B applied alone in corresponding dose: 15.6%
Echinochloa caudate; haloxyfop-P-methyl 15 g a.i./ha
  Control effect (%) of B applied alone in corresponding dose: 40.2%
Echinochloa caudate; haloxyfop-P-methyl 30 g a.i./ha
  Control effect (%) of B applied alone in corresponding dose: 73.4%
Echinochloa oryzoides; B 3.75 g a.i./ha
  Control effect (%) of B applied alone in corresponding dose: 7.9%
Echinochloa oryzoides; B 7.5 g a.i./ha
  Control effect (%) of B applied alone in corresponding dose: 19.0%
Echinochloa oryzoides; B 15 g a.i./ha
  Control effect (%) of B applied alone in corresponding dose: 30.4%
Echinochloa oryzoides; B 30 g a.i./ha
  Control effect (%) of B applied alone in corresponding dose: 66.9%

## CS(=O)(=O)c1cc(C(F)(F)F)ccc1C(=O)c1cnoc1C1CC1 [isoxaflutole]
Echinochloa caudate; Echinochloa, 576 h, Table 85, 7.5 g a.i./ha, read-out: Control effect (%) of B applied alone in corresponding dose
  pest or weed control at 7.5 g/ha: 2.1%
Echinochloa caudate; Echinochloa, 576 h, Table 85, 15 g a.i./ha, read-out: Control effect (%) of B applied alone in corresponding dose
  pest or weed control at 15 g/ha: 14.3%
Echinochloa caudate; Echinochloa, 576 h, Table 85, 30 g a.i./ha, read-out: Control effect (%) of B applied alone in corresponding dose
  pest or weed control at 30 g/ha: 47.9%
Echinochloa caudate; Echinochloa, 576 h, Table 85, 60 g a.i./ha, read-out: Control effect (%) of B applied alone in corresponding dose
  pest or weed control at 60 g/ha: 63.6%
Echinochloa oryzoides; Echinochloa oryzoides, 576 h, B 7.5 g a.i./ha, read-out: Control effect (%) of B applied alone in corresponding dose
  pest or weed control at 7.5 g/ha: 8.1%
Echinochloa oryzoides; Echinochloa oryzoides, 576 h, B 15 g a.i./ha, read-out: Control effect (%) of B applied alone in corresponding dose
  pest or weed control at 15 g/ha: 19.6%
Echinochloa oryzoides; Echinochloa oryzoides, 576 h, B 30 g a.i./ha, read-out: Control effect (%) of B applied alone in corresponding dose
  pest or weed control at 30 g/ha: 50.6%
Echinochloa oryzoides; Echinochloa oryzoides, 576 h, B 60 g a.i./ha, read-out: Control effect (%) of B applied alone in corresponding dose
  pest or weed control at 60 g/ha: 65.5%

## CCC(=O)Nc1ccc(Cl)c(Cl)c1 [propanil]
Echinochloa caudate; Echinochloa, 576 h, propanil 75 g a.i./ha, read-out: Control effect (%) of B applied alone in corresponding dose
  pest or weed control at 75 g/ha: 3.8%
Echinochloa caudate; Echinochloa, 576 h, propanil 150 g a.i./ha, read-out: Control effect (%) of B applied alone in corresponding dose
  pest or weed control at 150 g/ha: 21.1%
Echinochloa caudate; Echinochloa, 576 h, propanil 300 g a.i./ha, read-out: Control effect (%) of B applied alone in corresponding dose
  pest or weed control at 300 g/ha: 36.4%
Echinochloa caudate; Echinochloa, 576 h, propanil 600 g a.i./ha, read-out: Control effect (%) of B applied alone in corresponding dose
  pest or weed control at 600 g/ha: 52.5%
Echinochloa oryzoides; Echinochloa oryzoides, 576 h, B 75 g a.i./ha, read-out: Control effect (%) of B applied alone in corresponding dose
  pest or weed control at 75 g/ha: 7.6%
Echinochloa oryzoides; Echinochloa oryzoides, 576 h, B 150 g a.i./ha, read-out: Control effect (%) of B applied alone in corresponding dose
  pest or weed control at 150 g/ha: 19.9%
Echinochloa oryzoides; Echinochloa oryzoides, 576 h, B 300 g a.i./ha, read-out: Control effect (%) of B applied alone in corresponding dose
  pest or weed control at 300 g/ha: 37%
Echinochloa oryzoides; Echinochloa oryzoides, 576 h, B 600 g a.i./ha, read-out: Control effect (%) of B applied alone in corresponding dose
  pest or weed control at 600 g/ha: 53.9%

## COC(=O)[C@@H](C)Oc1ccc(Oc2cnc3cc(Cl)ccc3n2)cc1 [quizalofop-P-methyl]
Echinochloa caudate; quizalofop-P-methyl 3.75 g a.i./ha
  Control effect (%) of B applied alone in corresponding dose: 3.4%
Echinochloa caudate; quizalofop-P-methyl 7.5 g a.i./ha
  Control effect (%) of B applied alone in corresponding dose: 12.2%
Echinochloa caudate; quizalofop-P-methyl 15 g a.i./ha
  Control effect (%) of B applied alone in corresponding dose: 40.8%
Echinochloa caudate; quizalofop-P-methyl 30 g a.i./ha
  Control effect (%) of B applied alone in corresponding dose: 72.1%
Echinochloa oryzoides; B 3.75 g a.i./ha
  Control effect (%) of B applied alone in corresponding dose: 5.9%
Echinochloa oryzoides; B 7.5 g a.i./ha
  Control effect (%) of B applied alone in corresponding dose: 14.6%
Echinochloa oryzoides; B 15 g a.i./ha
  Control effect (%) of B applied alone in corresponding dose: 38.6%
Echinochloa oryzoides; B 30 g a.i./ha
  Control effect (%) of B applied alone in corresponding dose: 63.3%

## CCC/C(=N\OCC)C1=C(O)CC(CC(C)SCC)CC1=O (centres unmarked) [sethoxydim]
Echinochloa caudate; [1]
  pest or weed control at 15 g/ha: 5.1%
  pest or weed control at 30 g/ha: 21.5%
  pest or weed control at 60 g/ha: 42.6%
  pest or weed control at 120 g/ha: 61.6%
Echinochloa oryzoides; [2]
  pest or weed control at 15 g/ha: 5.5%
  pest or weed control at 30 g/ha: 13.8%
  pest or weed control at 60 g/ha: 35.4%
  pest or weed control at 120 g/ha: 68.4%

## COC(=O)c1ccccc1S(=O)(=O)NC(=O)Nc1nc(C)cc(C)n1 [sulfometuron-methyl]
Echinochloa caudate; [1]
  pest or weed control at 9.375 g/ha: 3.8%
  pest or weed control at 18.75 g/ha: 13.9%
  pest or weed control at 37.5 g/ha: 24.6%
  pest or weed control at 75 g/ha: 52.7%
Echinochloa oryzoides; [2]
  pest or weed control at 9.375 g/ha: 3.2%
  pest or weed control at 18.75 g/ha: 12.6%
  pest or weed control at 37.5 g/ha: 38%
  pest or weed control at 75 g/ha: 53.8%
